From PMC9657394, “Purification and Characterization of Bot33: A Non-Toxic Peptide from the Venom of Buthus occitanus tunetanus Scorpion” (Molecules, 2022)

Tests used:
hKv1.3 = assay: Two-electrode voltage-clamp, Kv1.3 expressed in Xenopus laevis oocytes; type: cell-based, mammalian; conditions: 1 µM, 250-ms depolarization to 0 mV from −90 mV, pH 7.4, 18–22 °C
Source text: (§1) For the expression of Kv channels (mammalian rKv1.1, rKv1.2, hKv1.3, rKv1.4, rKv1.5, rKv1.6, and Drosophila Shaker IR) in Xenopus laevis oocytes, the linearized plasmids were transcribed using the T7 or SP6 mMESSAGE-mMACHINE transcription kit (Ambion, Carlsbad, CA, USA). The harvesting of stage V–VI oocytes from anesthetized female Xenopus laevis frog was previously described in compliance with the regulations of the European Union (EU) concerning the welfare of laboratory animals as declared in Directive 2010/63/EU. The use of X. laevis oocytes was approved by the Animal Ethics Committee of the KU Leuven with the license number P186/2019. Oocytes were injected with 50 nl of cRNA at a concentration of 1 ng/nl using a microinjector (Drummond Scientific, Broomall, PA, USA). […]
(§2) Two-electrode voltage-clamp recordings were performed at room temperature (18–22 °C) using a Geneclamp 500 amplifier (Molecular Devices, Downingtown, PA, USA) controlled by a pClamp data acquisition system (Axon Instruments, Union City, CA, USA). Whole-cell currents from oocytes were recorded 1–4 days after injection. […] All data were analyzed using pClamp Clampfit 10.1 (Molecular Devices, Downingtown, PA, USA) and Origin 7.5 software (Originlab, Northampton, MA, USA).

Shaker IR = assay: Two-electrode voltage-clamp, Shaker IR expressed in Xenopus laevis oocytes; type: cell-based, Drosophila; conditions: 1 µM, 250-ms depolarization to 0 mV from −90 mV, pH 7.4, 18–22 °C
Source text: as §1, §2

mice = system: mice; parameters: method as in PMID 1730708; conditions: ref [22]; cited from earlier work

| Substance | effect on Kv1.3 current (hKv1.3) | effect on Shaker IR current (Shaker IR) | LD50 (mice) |
| --- | --- | --- | --- |
| ChTx: control toxin tested on Kv1.3 and Shaker IR | completely inhibited the current | completely inhibited the current | – |
| KTX: toxin with LD50 ≈ 24 ng/20 g mice | – | – | ≈ 24 ng/20 g mice |
